From publication PMC10667816, “A Cell‐Penetrant Peptide Disrupting the Transcription Factor CP2c Complexes Induces Cancer‐Specific Synthetic Lethality” (Advanced Science, 2023) come the findings set out here.

Where a SMILES comes first, the peptide text is derived from it.

The test system of data set [1] is ACP52C‐resistant cancer cell lines. The data set is described as follows: Growth inhibition of resistant cells with CASP2 inhibition. The format is cell-based, human. The conditions noted are these: combined with CASP2 inhibiting peptide Ac‐VDVAD‐CHO (10 µM).
Procedure: (§1) Various cell lines were treated with peptides, either alone or in combination with the CASP2 inhibitor (Ac‐VDVAD‐CHO; Enzo ALX‐260‐058‐M001) at various concentrations for 4 days. Cell viability was assessed on day 2 or day 4 using MTT (3‐(4,5‐dimethylthiazol‐2‐yl)‐2,5‐diphenyltetrazolium bromide; Sigma–Aldrich, M2128) assay. In brief, fresh cells were seeded in flat‐bottomed 96‐well tissue culture plates at appropriate concentrations for each cell line per well using complete culture medium. The cells were incubated in 100 µL of culture medium containing various concentration of chemicals or peptides at 37 °C for 0 to 96 h. A solution of MTT (5 mg mL^−1) was added to the culture medium, and the cells were further incubated at 37 °C for an additional 3 h. The MTT medium was then removed, and the formazan crystals were dissolved in DMSO (100 µL per well). The formazan concentration was measured spectrophotometrically at 490 nm using a Varioskan Flash Spectral Scanning Multimode Reader (Thermo Scientific Korea). Nonlinear regression curves for growth inhibition and GI50 values for each cell line were estimated from independent replicates using the Prism (version 6) software (GraphPad Software Inc.)
Data set [2] concerns lung cancer cells and some blood cancer cells. The data set is described as follows: MTT growth inhibition in ACP52C‐resistant cells. The format is cell-based, human. The note with it: concentrations up to 1 mM.
Procedure: as §1
The target in data set [3] is T1, endogenous nuclear and cytoplasmic CP2c complexes (Homo sapiens, UniProt Q12800).
T1 construct: dissociated all endogenous nuclear and cytoplasmic CP2c complexes; endogenous in cells
T1 sequence (Q12800 whole entry, one chain of several): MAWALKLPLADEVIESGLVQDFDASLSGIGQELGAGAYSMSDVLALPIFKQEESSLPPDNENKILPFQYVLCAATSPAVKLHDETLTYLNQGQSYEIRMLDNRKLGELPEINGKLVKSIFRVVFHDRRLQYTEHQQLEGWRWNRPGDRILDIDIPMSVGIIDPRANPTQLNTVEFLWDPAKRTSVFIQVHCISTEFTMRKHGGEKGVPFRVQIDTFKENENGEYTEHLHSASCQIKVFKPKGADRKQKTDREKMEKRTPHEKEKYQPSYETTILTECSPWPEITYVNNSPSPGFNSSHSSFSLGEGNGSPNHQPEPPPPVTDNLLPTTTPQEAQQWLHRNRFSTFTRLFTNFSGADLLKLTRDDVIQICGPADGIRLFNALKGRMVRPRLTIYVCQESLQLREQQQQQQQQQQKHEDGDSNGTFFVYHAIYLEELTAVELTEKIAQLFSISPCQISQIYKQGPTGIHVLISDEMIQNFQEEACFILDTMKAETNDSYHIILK
The data set can be described thus: DSP crosslinking‐Western blot of endogenous CP2c complexes. The class given is cell-based. The conditions noted are these: DSP XL‐WB and WB with new protein synthesis inhibition. The method, then: Cell extracts were prepared using lysis buffer (50 mM Tris‐HCl, pH 7.4, 150 mM NaCl, 1 mM EDTA, 0.1% triton X‐100, and 1 mM PMSF). The cell extracts were separated by SDS‐PAGE and electro‐blotted onto polyvinylidene difluoride (PVDF) membranes (GE healthcare, 10600069). For slot blotting, the cell extracts were blotted onto nitrocellulose (NC) membranes (GE healthcare, 10484059) using a Bio‐Dot (Bio‐Rad, 1706542). Typically, membranes were blocked with 5% non‐fat dry milk in a solution of 0.1% Tween 20, and with 5% BSA in case of biotin blotting. Membranes were incubated overnight at 4 °C with appropriate dilutions of the primary antibodies (listed in Table S4, Supporting Information) after blocking. The blots were incubated for 1 h at room temperature with the respective HRP‐conjugated secondary antibodies (listed in Table S4, Supporting Information). Polyclonal ACTB antibody was used as a loading control for WB. […] Relative amounts of proteins were quantified using Image J (ver. 1.51) program.
To determine DNA‐free CP2c containing complexes, live cells were washed twice with the 2.5 mM sodium phosphate buffer, pH 7.4, crosslinked using 2 mM DSP in PBS for 3 h on ice, and crosslinking was terminated with 50 mM Tris‐HCl, pH 7.4, for 15 min at room temperature. […] Crosslinked samples were analyzed by pulldown assay or mass spectrometry.
In general terms: A western blot detects proteins with antibodies after separation by electrophoresis.

The test system of data set [4] is CP2c transcriptional targets (FN1, OCT4, and SNAI2) in HepG2 cells. The data set is described as follows: RT‐qPCR transcription inhibition of CP2c targets. The class given is cell-based, human. The note with it: summary for both cell lines, 36 h after treatment; read-out: average TI50 (50% transcriptional inhibition) values of the three CP2c targets. The method, then:
To quantify mRNA expression of the gene of interest, cells were harvested, and total cellular RNA was extracted using Qiazol reagent (Qiagen, 79306). Purified RNA was dissolved in Diethyl pyrocarbonate (DEPC) water. Reverse transcription was performed using a High‐Capacity cDNA reverse transcription kit (Toyobo, FSQ‐201) in the presence of 400 ng of total RNA and 10 pmol random hexamer. PCR was performed using rTaq Plus 5X PCR master mix (Elpis‐Biotech, EBT‐1319) and the SYBR green Master Mix Kit. Amplifications were performed using a Light cycler 1.5 real‐time PCR system.^[ [43] ^] The relative mRNA expression levels were determined using the 2(−ΔCt) method, with GAPDH transcript levels serving as an internal control. Errors were calculated from at least two independent experiments. Oligonucleotide primers used in RT–qPCR are listed in Table S2 (Supporting Information).
In general terms: Quantitative PCR measures a nucleic acid by following its amplification.

In data set [5] the test system is normal male and female mice. The data set can be described thus: In vivo toxicity test of ACP52C. Also on record: species or system mouse. The conditions noted are these: ICR mice, 100 or 1000 mg kg^−1 intravenously, once or twice with four‐day interval; H&E of major organs. The method, then:
To assess the toxicity of ACP52C, twelve 6‐weeks‐old ICR mice (six males and six females) were divided into three groups, each containing two mice: one group received a saline, another received 100 mg kg^−1 of ACP52C, and the third received 1000 mg kg^−1 of ACP52C. For each group, one mouse was intravenously injected once, and the other one was intravenously injected twice with a four‐day interval between injections. At the time of sacrifice, major organs were analyzed by H&E staining. To assess the repeated toxicity of ACP52CGK, twenty‐four 6‐weeks‐old ICR mice (twelve males and twelve females) were used, dividing them into two groups of six mice each: one group received saline, and the other received 100 mg kg^−1 of ACP52CGK. […] Body weight, water and feed consumption were measured every 3 days after injection. […] Major organs were weighed and analyzed by H&E staining. H&E‐stained tissue sections were analyzed and photographed, and the representative histological images were recorded. […]
A-C) Anticancer effects of ACP52C in xenograft model mice. […] Data are expressed as means ± SD, and the number […]
effective tumor targeting. […] The estimated residual levels of Cy5-ACP52C in the body over time were determined by quantifying the fluorescence intensity of images (right). RL50 represents the required time for a 50% retention of fluorescence level. (F) Bright field and fluorescence images of the […]

As to `CC(=O)N[C@@H](CC(N)=O)C(=O)N[C@@H](Cc1ccc(O)cc1)C(=O)N1CCC[C@H]1C(=O)N[C@@H](CCC(N)=O)C(=O)N[C@@H](CCCNC(=N)N)C(=O)N1CCC[C@H]1C(=O)N[C@@H](CS)C(=O)N[C@@H](CCCNC(=N)N)C(=O)NCC(=O)N[C@@H](CC(=O)O)C(=O)N[C@@H](CCCCN)C(=O)NCC(=O)N1CCC[C@H]1C(=O)N[C@@H](CC(=O)O)C(=O)N[C@@H](CS)C(N)=O` [ACP52C] (Ac-NYPQRPCRGDKGPDC-NH2), in data set [1], the “sensitization by combined treatment” value is “sensitized ACP52C‐resistant cancer cell lines”. For the same compound, the growth inhibition entry in data set [2] is “resistance”. Further, the “dissociation of endogenous CP2c complexes” value in data set [3] was “readily dissociated all endogenous nuclear and cytoplasmic CP2c complexes”. The IC50 in data set [4] is 35 to 40 µM. Further, in data set [5], the adverse side effects entry is “did not exhibit any adverse side effects”.
